# Assay results as given in patent US10590101B2, “Benzo-N-hydroxy amide compounds having antitumor activity” (ITALFARMACO SPA, priority 2016, dated 2020).
# Experiments:
# [1] = Force degradation test (chemical stability); assay type: physicochemical
# HCT116 cells = assay: Cytotoxicity in vitro, HCT116 (CellTiter 96 Aqueous One Solution); assay type: cell-based, human; details: cis-form vs trans-form
# Description: The compounds of the present invention are small molecules of formula (I), characterised by the presence of a metal chelating moiety, the benzohydroxamate, an α-aminoacidic N-acylated central core and an α,β-unsaturation at the acyl-moiety. This particular structural feature seems responsible for the high inhibitory activity on cancer stem cell lines and on HCT116 cells (ATCC CCL-247), a human colorectal carcinoma cell line widely used in cancer biology both in vitro and in vivo (Botchkina Cancer Genom Proteom 6, 19-30, 2009; Yeung PNAS 107, 3722-3727, 2010).
# The cytotoxicity activity was evaluated as follows: • Pre-B leukemia cell line 697 was seeded at 2×10^5 c/well; • Colon carcinoma cell lines HCT116, HT29 and COLO2015 were seeded at 4×10^3, 4×10^3 and 10×10^3 c/well respectively; • Primary human kidney cells were seeded at 1.5×10^3 and 6.5×10^3 in two separate experiments; • Human PBMC were seeded at 5×10^5 c/well; • Colon cancer stem cells (CSC) were seeded at 3×10^3;
# Testing compounds were added after 24 h and incubated for 72 h (48 h for 697 cell line). The concentrations of molecules ranged from 10000 nM to 1.5 nM (10000 to 1 nM for 697 cell line). The cytotoxic activity of compounds was evaluated using the CellTiter 96® Aqueous One Solution Cell Proliferation Assay (Promega) which measures the functionality of mitochondria according to manufacturer's instructions. For Colon cancer stem cells viability was determined with CellTiter-Glo Luminescent cell viability assay (Promega).
# The activity of compounds at any dose is calculated as percentage of inhibition versus vehicle-treated control (=0). The IC50s are extrapolated from the inhibition dose/response curve using GraphPad Prism program.
compound,measurement,setting,value
"O=C(/C=C\c1ccccc1)N[C@@H](Cc1ccccc1)C(=O)Nc1ccc(C(=O)NO)cc1 [Compound 5DZ, (S,Z)—N-hydroxy-4-(3-phenyl-2-(3-phenylacrylamido)propanamido)benzamide]",stability at high temperatures,[1]; 15 days at 80° C.,little less stable
same,stability at low pH,[1]; 15 days at pH 2,definitely less stable
same,chemical stability compared with the trans,[1]; cis-form vs trans,chemically less stable
same,potency on HCT116 cells compared with the trans-form,HCT116 cells,less potent
